Results taken from patent US20210008149A1, “WNT5A PEPTIDES IN REDUCTION OF CANCER STEM CELLS” (WNTRESEARCH AB, priority 2017, published 2021).
Like-named read-outs stand apart in the source and are kept apart here.

What was measured:
[1] = tested on: human HT29 colon cancer cells; experiment: CellTiter-Blue fluorescence cell viability assay; conditions: for IC50: read-out: IC50 value, cell viability, from dose-response curves
Procedure: (§9) Colon cancer HT29 cells were treated with either FOLFOX alone (green triangles), 5-FU alone (orange triangles), oxaliplatin alone (black squares), Foxy-5 alone (red squares) or FOLFOX+Foxy-5 (blue circles). The cytotoxic effects of these different treatments were evaluated by CellTiter-Blue™ fluorescence cell viability assay. […] The data are normalized and shown as means±SEM.

HT29 colon cancer cells = experiment: HT29 colon cancer xenograft in nude mice, tumours analysed by IHC and mRNA; type: in vivo; conditions: HT29-derived tumours
Text: (§1) Representative photos from saline- and Foxy-5-treated animals are presented. From each such slide, 4 boxes were put on top of the stained tissue and for each of them the ALDH staining was scored as a percentage of stained cells multiplied by the staining intensity. The following score was used for percentage stained cells; 0 for positive stained cells <5%, 1 for positive cells 5-25%, 2 for positive cells 26-50%, 3 for positive cells 51-75%, 4 for positive cells >75%.
(§2) For staining intensities, the stained areas were scored as; 1 for weak staining, 2 for medium staining and 3 for strong staining. For each box a final score was obtained by multiplying the score for percentage of positively stained cells with the score for staining intensity. Finally, a mean value was obtained from the 4 boxes for each tumour. The same scoring protocol was then used for all IHC analyses presented in the present study.
as §1, with “Representative images” for “Representative photos”, “from vehicle (saline)” for “from saline-”, “slide, 6” for “slide, 4”, “were randomly” for “were”
as §2, with “6” for “4”, “tumour sample.” for “tumour.”
(§3) Tumours from two different human colon cancer cell types HT29 and Caco-2 cells were examined by immunohistochemistry (IHC) and mRNA (see FIG. 1).
(§4) On day 0: Subcutaneous injections of HT29 or Caco-2 colon cancer cells in nude mice were done.
(§5) On day 7 after tumours have been established in the mice, intraperitoneal (I.P) injections of vehicle (saline) alone (gr 1) or Foxy-5 (2 μg/g; gr 2) were done.
(§6) On days 9-23 tumour growth and animal weight was monitored—then +8 I.P. injections every 2nd day of either vehicle alone (gr 1) or Foxy-5 (2 μg/g; gr 2).
(§7) On day 24 the two types of tumours (Caco-2 and HT29 derived) (divided in two parts of which one was fixed and the other frozen at −80° C.) were analyzed by IHC for their protein expression of COX-2, 15PGDH, β-catenin, Ascl2, ALDH and Dckl1 and for their mRNA content of ALDH and Dckl1 (ALDH is a general stem cell marker and Dck1 is a specific marker for colon CSCs).

[2] = tested on: Caco-2 colon cancer cells; experiment: Caco-2 colon cancer xenograft in nude mice, tumours analysed by IHC and mRNA; type: in vivo; conditions: Caco-2-derived tumours
Text: as §1, §2
as §1, with “Representative images” for “Representative photos”, “from vehicle (saline)” for “from saline-”, “slide, 6” for “slide, 4”, “were randomly” for “were”
as §2, with “6” for “4”, “tumour sample.” for “tumour.”
as §3, §4, §5, §6, §7

[3] = tested on: colon cancer xenograph tissue; experiment: Colon cancer xenograft tissue (cell line not stated), IHC of COX-2 and 15-PGDH; type: in vivo, nude mice; conditions: Foxy-5 2 μg/g I.P., vs vehicle
Text: The IHC stainings were scored exactly as described in detail for the IHC staining in FIG. 1.
(§8) Representative images from vehicle- and Foxy-5-treated animals are presented. From each such slide 6 boxes were put on top of the stained tissue and for each of them the Cox-2 staining was scored as a percentage of stained cells multiplied by the staining intensity as described in detail for FIG. 2.
as §8, with “15-PGDH” for “Cox-2”
On day 0: Subcutaneous injections of HT29 or Caco-2 colon cancer cells in nude mice were done. […]
as §6, §7

colon cancer cells [4] = experiment: In vitro treatment of colon cancer cells (Mehdawi et al., 2016); type: cell-based; conditions: in vitro conditions, inventors' own observation
[5] = tested on: human HT29 colon cancer cells
Procedure: as §9

colon cancer cells [6] = conditions: in vitro; cited from earlier work
[7] = Foxy-5 2 μg/g I.P. every 2nd day, day 7-23, IHC and mRNA, day 24, vs vehicle
[8] = Foxy-5 2 μg/g I.P., vs vehicle-treated mice

**Q.** With `O=c1[nH]cc(F)c(=O)[nH]1` [5-FU, 5-fluorouracil] as the molecule, how does the IC50 [1] read?
**A.** 6.8 µM

**Q.** For `Nc1nc2c(c(=O)[nH]1)N(C=O)C(CNc1ccc(C(=O)N[C@@H](CCC(=O)O)C(=O)O)cc1)CN2` (stereo partly drawn) [folinic acid], which “cytotoxic effect on cell viability” value ([1]; monotherapy) is on record?
**A.** no cytotoxic effect

**Q.** With `O=C1[O][Pt]2([NH][C@@H]3CCCC[C@H]3[NH]2)[O]C1=O` [oxaliplatin] as the molecule, how does the IC50 [1] read?
**A.** 3.4 µM

**Q.** Which results are given for MDGCEL [Foxy-5]?
**A.** active β-catenin nuclei expression (HT29 colon cancer cells; IHC, Foxy-5 2 μg/g I.P.): Decreased; β-catenin downstream target Ascl2 protein expression (HT29 colon cancer cells; IHC, Foxy-5 2 μg/g I.P.): reductions; expression of the two stem cell biomarkers (ALDH and Dck1) (HT29 colon cancer cells; [7]): significantly reduce; tumour volume (HT29 colon cancer cells; [8]): reductions; active β-catenin nuclei expression ([2]; IHC, Foxy-5 2 μg/g I.P.): Decreased; β-catenin downstream target Ascl2 protein expression ([2]; IHC, Foxy-5 2 μg/g I.P.): reductions; expression of the two stem cell biomarkers (ALDH and Dck1) [2, 7]: significantly reduce; tumour volume [2, 8]: reductions; PGE2 degrading enzyme 15-PGDH expression [3]: increase; expression of the PGE2 generating enzyme COX-2 [3]: decrease; number of CSCs (colon cancer cells [4]): not been able to detect any reduction; cytotoxic effect on cell viability [5]: no cytotoxic effect; expression of the PGE2 and lipoxin degrading enzyme 15-PGDH (colon cancer cells [6]): up-regulate; expression of the PGE2 producing enzyme COX-2 (colon cancer cells [6]): decrease; β-catenin signalling (colon cancer cells [6]): reduction; effect on the inhibitory effect of FOLFOX on cell viability ([1]; combined with FOLFOX): do not enhance or reduce; IC50 value, cell viability ([1]; from dose-response curves): no IC50 value could be determined

B1: WNT5A protein: full length WNT5A protein according to SEQ ID NO: 1, a non-canonical Wnt ligand (protein, listed as Homo sapiens)
chain: MKKSIGILSPGVALGMAGSAMSSKFFLVALAIFFSFAQVVIEANSWWSLGMNNPVQMSEVYIIGAQPLCSQLAGLSQGQKKLCHLYQDHMQYIGEGAKTGIKECQYQFRHRRWNCSTVDNTSVFGRVMQIGSRETAFTYAVSAAGVVNAMSRACREGELSTCGCSRAARPKDLPRDWLWGGCGDNIDYGYRFAKEFVDARERERIHAKGSYESARILMNLHNNEAGRRTVYNLADVACKCHGVSGSCSLKTCWLQLADFRKVGDALKEKYDSAAAMRLNSRGKLVQVNSRFNSPTTQDLVYIDPSPDYCVRNESTGSLGTQGRLCNKTSEGMDGCELMCCGRGYDQFKTVQTERCHCKFHWCCYVKCKKCTEIVDQFVCK
**Q.** For B1, which “number of CSCs” value (colon cancer cells [4]) is on record?
**A.** not been able to detect any reduction

**Q.** What about the “expression of the PGE2 and lipoxin degrading enzyme 15-PGDH” value (colon cancer cells [6]) of the same molecule?
**A.** up-regulate

**Q.** What about the “expression of the PGE2 producing enzyme COX-2” value (colon cancer cells [6]) of the same molecule?
**A.** decrease

**Q.** What about the β-catenin signalling (colon cancer cells [6]) of the same molecule?
**A.** reduction
